In patent US6906108B2, “Extracts of vetiver oil as repellent and toxicant to ants, ticks, and cockroaches” (Board of Supervisors of Louisiana State University and …, priority 2001, dated 2005):

Tests used:
Assay type in all cases: in vivo
[1] = test system: cat fleas (Ctenocephalides felis (Bouche)); experiment: Cat flea Petri dish filter paper bioassay (repellency and mortality); conditions: 2.76 mg per dish
Procedure: To test the effectiveness of nootkatone against fleas, cat fleas (Ctenocephalides felis (Bouche)) were collected from a flea colony at St. Gabriel, La.
Petri dishes (5 cm diameter and 1 cm height) were prepared by lining one half of the top and the bottom with a half circle of filter paper (55 mm), and lining the other half with a second half circle of filter paper. For the treated Petri dishes, 50 mg nootkatone or 100 mg REPEL® were dissolved in 0.5 ml ethanol. […] Ten replicate Petri dishes were used for each of the treatments. The ethanol solution was added to the filter paper on the top and bottom and dried for 10 min. To place the fleas in the Petri dishes, fleas were temporarily immobilized by placing them at −20° C. for 5 min. The number of fleas in each Petri dish varied: for the 10 control Petri dishes, the average number in each dish was 10.2, with a range of 4 to 23; for 0.2 mg nootkatone, the average number in each dish was 8.5, with a range of 5 to 18; for 1 mg nootkatone, the average number in each dish was 10.6, with a range of 6 to 21; for 2 mg nootkatone, the average number in each dish was 11.1, with a range of 9 to 15 (Fleas could be counted in only 9 Petri dishes; one had too many fleas to count); and for 2.76 mg Deet, the average number in each dish was 6.7, with a range of 5 to 9.
The number of fleas on each side of each Petri dish was counted at 1 hr, 2 hr, 3 hr, 4 hr, 24 hr, 48 hr, 72 hr, and 96 hr.

[2] = test system: ticks (Ixodes scapularis); experiment: Tick Petri dish bioassay with treated sand (repellency and toxicity); conditions: 2.75 mg/dish
Procedure: To test the effectiveness of nootkatone against ticks, ticks (Ixodes scapularis) were collected from Idlewild, La. Nootkatone efficiacy was tested relative to a known repellent, N,N-diethyl-m-toluamide (“Deet”). REPEL®, which contains 27.55% Deet, was purchased locally from a retail garden store.
The bioassay was conducted using Petri dishes (5 cm diameter and 1 cm height). To ensure adequate moisture for the ticks, 1 ml of a hot agar solution (1.5% in H2O) was spread evenly on the inside surfaces of the Petri dish, including the top, bottom, and edges. After the agar cooled, sand that was treated as described below was spread evenly on the inside surfaces of the Petri dish. The sand was held in place by the agar.
For the treated sand, either 2 mg nootkatone or 100 mg REPEL® was initially dissolved in 2 ml ethanol, and then 200 μl of the solution was mixed with 2 g sand that had been autoclaved and cooled. The control was autoclaved sand with 200 μl ethanol only added. One half of the surfaces in the Petri dishes were covered with 2 g treated sand, and the other half with 2 g untreated sand. In the nootkatone-treated Petri dishes, the final concentration was 200 μg/dish; while in the Deet treated Petri dishes, the final concentration was 2.75 mg/dish. Control Petri dishes were prepared by covering all sides with untreated sand. One tick was added to each Petri dish, and the top replaced. The number of replicates were as follows: control, 6; nootkatone, 9; and Deet, 8. […] Repellent activity was noted if the tick was found on the untreated side of the Petri dish. The ticks in the control Petri dishes were randomly distributed on the left and right sides.
The above experiment was repeated with ticks (Ix. scapularis) collected from Hammond, La. The number of replicates in this experiment were as follows: controls, 8; nootkatone, 10; and Deet, 8.

[3] = test system: German cockroaches (Blattella germanica); experiment: German cockroach Petri dish filter paper bioassay (repellency and toxicity)
Procedure: To test the efficacy of nootkatone against cockroaches, German cockroaches (Blattella germanica) were collected at Baton Rouge, La., the same day as the bioassay was begun.
For the bioassay, Petri dishes (10 cm diameter×1 cm) were used. The Petri dishes were prepared by lining one half of the top and one half of the bottom with a half circle of filter paper (125 mm), and lining the other half with a second half circle of filter paper. For the treated Petri dishes, 50 mg nootkatone and 300 mg REPEL® were dissolved in 2.0 ml ethanol. To each Petri dish was added either ethanol only, 30 mg Deet, 1 mg nootkatone, or 10 mg nootkatone. Ten replicate Petri dishes were used for each of the treatments. The ethanol solution was added to the filter paper on the top and bottom and dried for 10 min. One cockroach was added to each Petri dish. The length of the cockroaches varied from 1 to 1.5 cm. The dishes were then observed at 15 min, 30 min, 1 hr, 2 hr, 3 hr, 4 hr, 5 hr, 24 hr, 48 hr, and 120 hr.

[4] = 8 replicates, ticks from Hammond

CCN(CC)C(=O)c1cccc(C)c1 [Deet, N,N-diethyl-m-toluamide, reference compound]
Overall activity against fleas [1]: effective as both a repellent and a toxicant
Repellent activity against fleas ([1]; first observation (1 hr)): showed repellent activity
Petri dishes that lost the repellent activity after 96 hr [2, 4]: one
Ticks dead at 24 hr (number) [2, 4]: one
Ticks dead at 72 hr (number) [2, 4]: one
Ticks dead at 96 hr (number) [2, 4]: four
Petri dishes that had lost the repellent activity after 90 hr ([2]; 8 replicates, ticks from Idlewild): three
Ticks dead at 96 hr (percent) ([2]; ticks from Hammond): 50%
Ticks dead after 90 hr ([2]; ticks from Idlewild): No ticks
Repellent activity against the cockroaches ([3]; 30 mg per dish): no significant repellent activity
Percent Repellency ([3]; 30 mg per dish, 30 min): 50%
Percent Repellency ([3]; 30 mg per dish, 1 hr): 40%
Percent Repellency ([3]; 30 mg per dish, 2 hr): 70%
Percent Repellency ([3]; 30 mg per dish, 3 hr): 50%
Percent Repellency ([3]; 30 mg per dish, 4 hr): 60%
Percent Repellency ([3]; 30 mg per dish, 5 hr): 70%
Percent Repellency ([3]; 30 mg per dish, 24 hr): 38%
Percent Repellency ([3]; 30 mg per dish, 48 hr): 43%
Percent Repellency ([3]; 30 mg per dish, 120 hr): 50%
Number of cockroach deaths compared with the control ([3]; any of the treatments (30 mg Deet; 1 mg or 10 mg nootkatone), up to 120 hr): not significantly different from the control
